Test results reported in patent publication US9663526B2, “Aminopyrimidinyl compounds” (Pfizer Inc., priority 2014, dated 2017).

Columns and labels:
[1] = target: recombinant human kinase domain of JAK1 (Homo sapiens (Human), UniProt P23458); assay: JAK Caliper enzyme assay at 1 mM ATP (JAK1); format: biochemical; settings: 1 mM ATP; read-out: IC50 (nM) JAK1;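 also: microfluidic mobility-shift readout of synthetic fluorescent peptide phosphorylation, percent product converted from peak height, inhibition relative to DMSO-only wells as uninhibited baseline, room temperature incubation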
[2] = target: recombinant human kinase domain of JAK2 (Homo sapiens (Human), UniProt O60674); assay: JAK Caliper enzyme assay at 1 mM ATP (JAK2); format: biochemical;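 also: microfluidic mobility-shift read-out of fluorescent synthetic peptide phosphorylation, percent product converted from peak heights, room temperature, DMSO-only wells as uninhibited baseline, inhibition curve fit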
[3] = target: recombinant human kinase domain of JAK3 (Homo sapiens (Human), UniProt P52333); assay: JAK Caliper enzyme assay at 1 mM ATP (JAK3); format: biochemical; settings: 1 mM ATP; read-out: IC50 (nM) JAK3;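 also: microfluidic mobility-shift readout of synthetic peptide phosphorylation, percent product converted from peak heights, normalized to DMSO-only wells as uninhibited baseline, room temperature incubation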
[4] = target: recombinant human kinase domain of TYK2 (Homo sapiens (Human), UniProt P29597); assay: JAK Caliper enzyme assay at 1 mM ATP (TYK2); format: biochemical; settings: 1 mM ATP; read-out: IC50 (nM) TYK2;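 also: microfluidic mobility-shift readout of synthetic peptide phosphorylation by TYK2, tuned to 20–30% conversion at room temperature, reaction stopped with EDTA, DMSO-only wells as uninhibited baseline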
[5] = system: interferon alpha signalling (TYK2 and JAK1), STAT3 phosphorylation; assay: Human whole blood INFα induced STAT3 phosphorylation assay; format: cell-based; settings: compound 60 minutes at 37° C., IFNα 5000 U/ml for 15 minutes, pSTAT3 in lymphocyte population by flow cytometry, read-out: HWB IFN alpha IC50;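 also: flow cytometry with anti-pSTAT3 staining, signal as percent-positive × mean fluorescence, baseline from unstimulated wells, 11-point dilution series, IC50 as inhibition of pSTAT3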

recombinant human kinase domain of JAK1, sequence (P23458 875-1153): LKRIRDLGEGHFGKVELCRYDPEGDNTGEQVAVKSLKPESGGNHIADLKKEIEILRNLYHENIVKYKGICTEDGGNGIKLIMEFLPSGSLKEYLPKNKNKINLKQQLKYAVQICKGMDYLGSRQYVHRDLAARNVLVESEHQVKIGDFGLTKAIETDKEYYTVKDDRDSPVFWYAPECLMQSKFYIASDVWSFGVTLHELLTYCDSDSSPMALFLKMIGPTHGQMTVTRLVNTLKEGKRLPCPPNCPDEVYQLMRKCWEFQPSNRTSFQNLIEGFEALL
recombinant human kinase domain of TYK2, sequence (P29597 897-1176): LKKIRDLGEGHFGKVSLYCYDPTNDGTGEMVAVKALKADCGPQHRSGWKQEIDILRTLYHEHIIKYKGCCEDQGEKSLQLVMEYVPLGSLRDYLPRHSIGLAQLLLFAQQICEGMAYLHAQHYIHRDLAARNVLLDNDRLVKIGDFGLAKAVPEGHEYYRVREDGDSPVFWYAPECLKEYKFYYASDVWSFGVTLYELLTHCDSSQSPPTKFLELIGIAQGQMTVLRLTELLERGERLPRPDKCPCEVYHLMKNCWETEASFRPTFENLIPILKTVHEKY
recombinant human kinase domain of JAK3, sequence (P52333 822-1111): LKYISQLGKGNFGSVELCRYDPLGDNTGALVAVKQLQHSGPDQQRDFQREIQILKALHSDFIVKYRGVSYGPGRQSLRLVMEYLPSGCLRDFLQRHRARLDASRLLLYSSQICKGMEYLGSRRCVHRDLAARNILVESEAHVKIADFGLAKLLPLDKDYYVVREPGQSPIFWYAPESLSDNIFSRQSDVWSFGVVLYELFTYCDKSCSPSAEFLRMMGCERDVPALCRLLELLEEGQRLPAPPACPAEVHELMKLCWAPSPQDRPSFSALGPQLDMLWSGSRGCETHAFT
recombinant human kinase domain of JAK2, sequence (O60674 849-1124): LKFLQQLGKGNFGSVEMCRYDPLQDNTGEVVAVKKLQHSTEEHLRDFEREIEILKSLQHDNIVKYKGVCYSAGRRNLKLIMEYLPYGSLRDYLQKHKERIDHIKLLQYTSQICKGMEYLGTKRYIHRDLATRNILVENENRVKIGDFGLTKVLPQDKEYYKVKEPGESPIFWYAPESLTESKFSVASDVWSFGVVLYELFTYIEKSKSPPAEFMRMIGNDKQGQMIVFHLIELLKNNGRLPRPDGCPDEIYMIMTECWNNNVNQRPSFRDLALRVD

Row | SMILES | IC50 [1] [nM] | IC50 [2] [nM] | IC50 [3] [nM] | IC50 [4] [nM] | IC50 [5] [nM]
1 | CCNC(=O)N1[C@@H]2CC[C@H]1CN(c1ccnc(Nc3cnc(C(=O)NC)c(Cl)c3)n1)C2 [Example 75, (1R,5S)-3-(2-{[5-chloro-6-(methylcarbamoyl)pyridin-3-yl]amino}pyrimidin-4-yl)-N-ethyl-3,8-diazabicyclo[3.2.1]octane-8-carboxamide] | 462 | 1290 | > 10000 | 66 | 751
2 | N#CCCN1[C@@H]2CC[C@H]1CN(c1ccnc(Nc3cn[nH]c3)n1)C2 [Example 79, 3-{(1R,5S)-3-[2-(1H-pyrazol-4-ylamino)pyrimidin-4-yl]-3,8-diazabicyclo[3.2.1]oct-8-yl}propanenitrile] | 38 | 406 | 8420 | 34 | 65
3 | CC(CC#N)N1[C@@H]2CC[C@H]1CN(c1ccnc(Nc3cnn(C)c3)n1)C2 (stereo partly drawn) [Example 80, 3-[(1R,5S)-3-{2-[(1-methyl-1H-pyrazol-4-yl)amino]pyrimidin-4-yl}-3,8-diazabicyclo[3.2.1 l]oct-8-yl]butanenitrile] | 190 | 436 | > 10000 | 79 | 112
4 | Cn1cc(Nc2nccc(N3C[C@H]4CC[C@@H](C3)N4C3(CC#N)COC3)n2)cn1 [Example 84, {3-[(1R,5S)-3-{2-[(1-methyl-1H-pyrazol-4-yl)amino]pyrimidin-4-yl}-3,8-diazabicyclo[3.2.1]oct-8-yl]oxetan-3-yl}acetonitrile] | 141 | 155 | > 10000 | 62 | 156
5 | CCNC(=O)N1[C@@H]2CC[C@H]1CN(c1ccnc(Nc3cnc(C(=O)NC)c(F)c3)n1)C2 [Example 87, (1R,5S)—N-ethyl-3-(2-{[5-fluoro-6-(methylcarbamoyl)pyridin-3-yl]amino}pyrimidin-4-yl)-3,8-diazabicyclo[3.2.1]octane-8-carboxamide] | 337 | 1790 | > 10000 | 93 | 582
6 | CNC(=O)c1ncc(Nc2nccc(N3C[C@H]4CC[C@@H](C3)N4C(=O)NCC(F)(F)F)n2)cc1C [Example 89] | 10 | 65 | 4430 | 9 | 118
7 | CCNC(=O)N1[C@@H]2CC[C@H]1CN(c1ccnc(Nc3cnc(C(=O)NC)c(C)c3)n1)C2 [Example 91, (1R,5S)—N-ethyl-3-(2-{[5-methyl-6-(methylcarbamoyl)pyridin-3-yl]amino}pyrimidin-4-yl)-3,8-diazabicyclo[3.2.1]octane-8-carboxamide] | 183 | 513 | > 10000 | 39 | 195
8 | Cn1cc(Nc2ncc(F)c(N3C[C@@]4(CO)C[C@@]4(NC(=O)[C@@H]4C[C@H]4C#N)C3)n2)cn1 [Example 110, (1R,2R)-2-cyano-N-[(1S,5S)-3-{5-fluoro-2-[(1-methyl-1H-pyrazol-4-yl)amino]pyrimidin-4-yl}-5-(hydroxymethyl)-3-azabicyclo[3.1.0]hex-1-yl]cyclopropanecarboxamide] | 29 | 455 | 928 | 58 | 146
9 | CCNC(=O)c1ccc(Nc2ncc(F)c(N3CC4CC(C3)N4C(=O)C(C)(C)F)n2)cc1C [Example 112, N-ethyl-4-({5-fluoro-4-[6-(2-fluoro-2-methylpropanoyl)-3,6-diazabicyclo[3.1.1]hept-3-yl]pyrimidin-2-yl}amino)-2-methylbenzamide] | 4070 | 3040 | > 10000 | 21 | 775
10 | CCNC(=O)c1ccc(Nc2nccc(N3CC4CC(C3)N4C(=O)C3CC3)n2)cc1C [Example 113, 4-({4-[6-(cyclopropylcarbonyl)-3,6-diazabicyclo[3.1.1]hept-3-yl]pyrimidin-2-yl}amino)-N-ethyl-2-methylbenzamide] | 8580 | 7860 | > 10000 | 82 | 939
11 | CCNC(=O)c1ccc(Nc2nccc(N3CC4CC(C3)N4C(=O)C(C)(F)F)n2)cc1 [Example 114, 4-({4-[6-(2,2-difluoropropanoyl)-3,6-diazabicyclo[3.1.1]hept-3-yl]pyrimidin-2-yl}amino)-N-ethylbenzamide] | 955 | 1860 | > 10000 | 62 | 166
12 | CCNC(=O)c1ccc(Nc2nccc(N3CC4CC(C3)N4C(=O)C(F)(F)F)n2)cc1C [Example 115, N-ethyl-2-methyl-4-({4-[6-(trifluoroacetyl)-3,6-diazabicyclo[3.1.1]hept-3-yl]pyrimidin-2-yl}amino)benzamide] | 3790 | 3310 | > 10000 | 64 | 234
